Data: patent US10221190B2, “Biguanide compounds and use thereof” (IMMUNOMET THERAPEUTICS INC., priority 2013, dated 2019)

System: HCT116 cell
Test: Inhibitory activity against cancer cells (MTT cell viability), HCT116
Assay type: cell-based, human
Details: Homo sapiens, HCT 116, 48 hr incubation
Procedure: The inhibitory activities of biguanide derivatives against cancer cells were evaluated in the cell line SK-MEL-28 derived from human Melanoma cell, Miapaka-2 cell line derived from human pancreatic cancer cell and HCT116 cell line derived from human colorectal cancer cell by measuring the concentration that inhibits 50% of the growth of the cell lines (the half maximal inhibitory concentration, IC50).
Firstly, SK-MEL-28 cells were grown to be density of 5,000 cells/well in RPMI-1640 media supplemented with 10% (v/v) bovine calf serum, on 96-well plates for 16 hr. To measure the IC50 of each compound, the cells were incubated for 48 hr with the 100 mM PBS stock compounds at an amount of 10 mM, 1 mM, 200 uM, 40 uM, 8 uM, 1.6 uM, 0.32 uM or 0.064 uM; 50 mM PBS and EtOH stock compounds at an amount of 1 mM, 200 uM, 40 uM, 8 uM, 1.6 uM, 0.32 uM and 0.064 uM; and 50 mM DMSO stock compounds at an amount of 100 uM, 25 uM, 6.25 uM, 1.56 uM, 0.39 uM, 0.10 uM and 0.02 uM, respectively. To test the viable cells after incubation with each compound, the cell cultures were incubated additionally for 2 hr in the presence of MTT. The produced formazan crystals were dissolved with dimethyl sulfoxide and then measured by detecting the absorbance at 560 nm.
After the 48 hr incubation, the viable cells were counted on the well plates treated with the compounds of the Examples relative to the count of the viable cells on the non-treated plates, and then was represented as the cell viability (%). By using the cell viability (%) result, the cell viability curve was plotted, and IC50 was calculated from the curve to evaluate the inhibitory activity against cancer cells.
The inhibitory activities of biguanide derivatives against cancer cells of Miapaca-2 cell and HCT116 cell were evaluated according to the substantially same method as described in SK-MEL-28 cell, except that DMEM media supplemented with 10% (v/v) bovine calf serum was used instead of RPMI-1640 media supplemented with 10% (v/v) bovine calf serum for SK-MEL-28 cell.

SMILES	IC50
N=C(NCc1ccc(C(F)(F)F)cc1)NC(=N)Nc1cccnc1 [Example 64, N1-3-pyridine-N5-(4-trifluoromethyl)benzyl biguanide]	29.2 µM
N=C(NC(=N)Nc1ccc(F)c(C(F)(F)F)c1)Nc1cccnc1 [Example 65, N1-3-pyridine-N5-(4-fluoro-3-trifluoromethyl)phenyl biguanide]	> 100 µM
N=C(NC(=N)Nc1cnccn1)Nc1ccc(OC(F)(F)F)cc1 [Example 66, N1-2-pyrazine-N5-(4-trifluoromethoxy)phenyl biguanide]	> 100 µM
N=C(NC(=N)Nc1cnccn1)Nc1ccc(C(F)(F)F)cc1 [Example 67, N1-2-pyrazine-N5-(4-trifluoromethyl)phenyl biguanide]	50.7 µM
N=C(NC(=N)NC1CCCC1)Nc1ccc(OC(F)(F)F)cc1 [Example 68, N1-cyclopentyl-N5-(4-trifluoromethoxy)phenyl biguanide]	53.1 µM
N=C(NC(=N)NC1CCCC1)Nc1ccc(F)cc1 [Example 69, N1-cyclopentyl-N5-(4-fluoro)phenyl biguanide]	68.5 µM
N=C(NCc1ccco1)NC(=N)Nc1ccc(Cl)cc1 [Example 70, N1-furan-2-ylmethyl-N5-(4-chloro)phenyl biguanide]	13.5 µM
N=C(NCc1ccco1)NC(=N)Nc1ccc(OC(F)(F)F)cc1 [Example 71, N1-furan-2-ylmethyl-N5-(4-trifluoromethoxy)phenyl biguanide]	6.9 µM
N=C(NCc1ccco1)NC(=N)Nc1ccc(C(F)(F)F)cc1 [Example 72, N1-furan-2-ylmethyl-N5-(4-trifluoromethyl)phenyl biguanide]	8.8 µM
N=C(NC(=N)Nc1ccc(-c2ccccc2)cc1)Nc1ccc(OC(F)(F)F)cc1 [Example 75, N1-(4-trifluoromethoxy)phenyl-N5-(N-biphenyl-4-yl) biguanide]	8.21 µM
N=C(NC(=N)N1CCCC1)Nc1ccc(CCNC(=O)CCCCC2CC3NC(=O)NC3S2)cc1 (stereo not shown) [Example 77, N-(4-(3-(imino(pyrrolidin-1-yl)methyl)guanidino)phenethyl)-5-(2-oxohexahydro-1H-thieno[2,3-d]imidazol-5-yl)pentaneamide]	> 100 µM
CC1CCCCN1C(=N)NC(=N)Nc1ccc(CCNC(=O)CCCCC2CC3NC(=O)NC3S2)cc1 (stereo not shown) [Example 78, N-(4-(3-(imino(2-methylpiperidin-1-yl)methyl)guanidino)phenethyl)-5-(2-oxohexahydro-1H-thieno[2,3-d]imidazol-5-yl)pentanamide]	> 100 µM
CC1CC(C)CN(C(=N)NC(=N)Nc2ccc(CCNC(=O)CCCCC3CC4NC(=O)NC4S3)cc2)C1 (stereo not shown) [Example 79, N-(4-(3-((3,5-dimethylpiperidin-1-yl)(imino)methyl)guanidino)phenethyl)-5-(2-oxohexahydro-1H-thieno[2,3-d]imidazol-5-yl)pentanamide]	> 100 µM
N=C(NC(=N)N1CC=CCC1)Nc1ccc(CCNC(=O)CCCCC2CC3NC(=O)NC3S2)cc1 (stereo not shown) [Example 80, N-(4-(3-((5,6-dihydropyridin-1(2H)-yl)(imino)methyl)guanidino)phenethyl)-5-(2-oxohexahydro-1H-thieno[2,3-d]imidazol-5-yl)pentanamide]	> 100 µM
C[C@@H]1CCC[C@H](C)N1C(=N)NC(=N)Nc1ccc(CCNC(=O)CCCCC2CC3NC(=O)NC3S2)cc1 (stereo partly drawn) [Example 81, N-(4-(3-(((2R,6S)-2,6-dimethylpiperidin-1-yl)(imino)methyl)guanidino)phenethyl)-5-(2-oxohexahydro-1H-thieno[2,3-d]imidazol-5-yl)pentanamide]	> 100 µM
N=C(NC(=N)N1CCCC1)Nc1ccc(NC(=O)CCCCC2CC3NC(=O)NC3S2)cc1 (stereo not shown) [Example 82, N-(4-(3-(imino(pyrrolidin-1-yl)methyl)guanidino)phenyl)-5-(2-oxohexahydro-1H-thieno[2,3-d]imidazol-5-yl)pentanamide]	> 100 µM
